ChEMBL document CHEMBL1148925, “Chaetoglobosins Q, R, and T, three further new metabolites from Chaetomium globosum” (J Nat Prod, 2004)
Values after ≈ are worked out from the molar mass of the structure shown.

Experiments:
P388 = experiment: Cytotoxicity against mouse P388 cells; format: functional, cell-based
Bacillus subtilis = experiment: Antibacterial activity against Bacillus subtilis at 15 ug/disk; format: functional; conditions: read-out: IZ
Amorphotheca resinae = experiment: Antifungal activity against Cladosporium resinae at 15 ug/disk; format: functional; conditions: read-out: IZ
HeLa = experiment: Cytotoxicity against human HeLa cells; format: functional, cell-based
[1] = tested on: Trichophyton mentagrophytes; experiment: Antifungal activity against Trichophyton mentagrophytes at 30 ug/disk; format: functional; conditions: read-out: IZ

SMILES | IC50 (P388) [µg/mL] | zone of inhibition at 15 µg/disc (Bacillus subtilis) [mm] | zone of inhibition at 15 µg/disc (Amorphotheca resinae) [mm] | IC50 (HeLa) [µg/mL] | zone of inhibition at 30 µg/disc [1] [mm]
C/C1=C\[C@@H](C)C/C=C/[C@H]2[C@@H]3O[C@]3(C)[C@@H](C)[C@H]3[C@H](Cc4c[nH]c5ccccc45)NC(=O)[C@]32C(=O)/C=C/C(=O)[C@@H]1O [CHAETOGLOBOSIN A] | 1.94 (≈ 3.67 µM) | 3 | 5 | 3.2 (≈ 6.05 µM) | 
C/C1=C\[C@@H](C)C/C=C/[C@H]2[C@@H]3O[C@]3(C)[C@@H](C)[C@H]3[C@H](Cc4c[nH]c5ccccc45)NC(=O)[C@]32C(=O)CCC(=O)C1=O [CHAETOGLOBOSIN C] |  |  |  | 3.2 (≈ 6.05 µM) | 
CC1=C(C)[C@H]2[C@H](Cc3c[nH]c4ccccc34)NC(=O)[C@]23C(=O)CC[C@H](O)C(=O)/C(C)=C/[C@@H](C)C/C=C/[C@H]3[C@@H]1O [CHAETOGLOBOSIN E] |  |  |  | 3.2 (≈ 6.03 µM) | 
C/C1=C\[C@@H](C)C/C=C/[C@H]2[C@@H]3O[C@]3(C)[C@@H](C)[C@H]3[C@H](Cc4c[nH]c5ccccc45)NC(=O)[C@]32C(=O)CC[C@H](O)C1=O [CHAETOGLOBOSIN F] |  |  |  | 3.2 (≈ 6.03 µM) | 
C/C1=C\[C@@H](C)C/C=C/[C@H]2[C@H](O)[C@](C)(O)[C@@H](C)[C@H]3[C@H](Cc4c[nH]c5ccccc45)NC(=O)[C@]32C(=O)/C=C/C(=O)[C@@H]1O [CHAETOGLOBOSIN Q] | 2.19 (≈ 4.01 µM) |  |  |  | 
CC1=C(C)[C@H]2[C@H](Cc3c[nH]c4ccccc34)NC(=O)[C@]23C(=O)/C=C/C(=O)[C@H](O)/C(C)=C/[C@@H](C)C/C=C/[C@H]3[C@@H]1O [CHEATOGLOBOSIN B] | 3.45 (≈ 6.53 µM) | 1 |  | 3.2 (≈ 6.05 µM) | 
C=C1[C@@H](C)[C@H]2[C@H](Cc3c[nH]c4ccccc34)NC(=O)[C@]23C(=O)/C=C/C(=O)[C@H](O)/C(C)=C/[C@@H](C)C/C=C/[C@H]3[C@@H]1O [CHEATOGLOBOSIN D] | 4.92 (≈ 9.31 µM) | 3 |  | 3.2 (≈ 6.05 µM) | 
CC1=C(C)[C@H]2[C@H](Cc3c[nH]c4ccccc34)NC(=O)[C@]23C(=O)CCC(=O)C(=O)/C(C)=C/[C@@H](C)C/C=C/[C@H]3[C@@H]1O [CHEATOGLOBOSIN G] |  |  |  | 3.2 (≈ 6.05 µM) | 
CC1=C[C@@H]2/C=C/C[C@H](C)/C=C(\C)[C@@H](O)C(=O)/C=C/C(=O)[C@]23C(=O)N[C@@H](Cc2c[nH]c4ccccc24)[C@@H]3[C@@H]1C [CHEATOGLOBOSIN J] | 2.47 (≈ 4.82 µM) | 2 |  | 3.2 (≈ 6.24 µM) | 
CC1=C[C@@H]2/C=C/C[C@H](C)/C=C(\C)[C@@H](O)C/C=C/C(=O)[C@]23C(=O)N[C@@H](Cc2c[nH]c4ccccc24)[C@@H]3[C@@H]1C [CHEATOGLOBOSIN T] | 1.58 (≈ 3.17 µM) |  |  |  | 
CC1=C[C@@H]2/C=C/C[C@H](C)/C=C(\C)CC(=O)/C=C/C(=O)[C@]23C(=O)N[C@@H](Cc2c[nH]c4ccccc24)[C@@H]3[C@@H]1C [PROCHEATOGLOBOSIN II] | 3.99 (≈ 8.03 µM) |  |  |  | 2
CC1=C[C@@H]2/C=C/C[C@H](C)/C=C(\C)CC/C=C/C(=O)[C@]23C(=O)N[C@@H](Cc2c[nH]c4ccccc24)[C@@H]3[C@@H]1C [PROCHEATOGLOBOSIN I] | 3.99 (≈ 8.27 µM) |  |  |  | 2
